This passage reports Ki results from US20100093723A1, “HETEROCYCLYL AND CYCLOALKYL SUBSTITUTED THIENO[2,3 d]PYRIMIDINE AND THEIR USE AS ADENOSINE A2a RECEPTOR ANTAGONISTS” (priority 2008, published 2010).

In assay [1] the target is T1, human adenosine A2a receptor (Homo sapiens, UniProt P29274).
T1 construct: expressed in transfected cells; host or cells: CHO-K1
The experiment in a line: Adenosine A2a Receptor Functional Assay (A2AGAL2). The class given is cell-based. The following applies: CHO-K1 cells overexpressing human A2a receptor, cAMP inducible beta-galactosidase reporter, 15 nM NECA agonist challenge; read-out: A2AGAL2_v4 Ki. The method, then: Adenosine A2a Receptor Functional Assay (A2AGAL2)
(§1) To initiate the functional assay, cryopreserved CHO-K1 cells overexpressing the human adenosine A2a receptor and containing a cAMP inducible beta-galactosidase reporter gene were thawed, centrifuged, DMSO containing media removed, and then seeded with fresh culture media into clear 384-well tissue culture treated plates (BD #353961) at a concentration of 10K cells/well. Prior to assay, these plates were cultured for two days at 37° C., 5% CO2, 90% Rh. On the day of the functional assay, culture media was removed and replaced with 45 uL assay medium (Hams/F-12 Modified (Mediatech # 10-080CV) supplemented w/0.1% BSA). Test compounds were diluted and 11 point curves created at a 1000× concentration in 100% DMSO. Immediately after addition of assay media to the cell plates, 50 nL of the appropriate test compound antagonist or agonist control curves were added to cell plates using a Cartesian Hummingbird. Compound curves were allowed to incubate at room temperature on cell plates for approximately 15 minutes before addition of a 15 nM NECA (Sigma E2387) agonist challenge (5 uL volume). A control curve of NECA, a DMSO/Media control, and a single dose of Forskolin (Sigma F3917) were also included on each plate. After additions, cell plates were allowed to incubate at 37° C., 5% CO2, 90% Rh for 5.5-6 hours. After incubation, media was removed, and cell plates were washed 1×50 uL with DPBS w/o Ca & Mg (Mediatech 21-031-CV). Into dry wells, 20 uL of 1× Reporter Lysis Buffer (Promega E3971 (diluted in dH2O from 5× stock)) was added to each well and plates frozen at −20° C. overnight. For β-galactosidase enzyme colorimetric assay, plates were thawed out at room temperature and 20 μL 2× assay buffer (Promega) was added to each well. Color was allowed to develop at 37° C., 5% CO2, 90% Rh for 1-1.5 h or until reasonable signal appeared. The colorimetric reaction was stopped with the addition of 60 μL/well 1M sodium carbonate. Plates were counted at 405 nm on a SpectraMax Microplate Reader (Molecular Devices). Data was analyzed in Microsoft Excel and IC/EC50 curves were fit using a standardized macro.

The target of assay [2] is T2, human adenosine A1 receptor (Homo sapiens, UniProt P30542).
T2 construct: expressed in transfected cells; host or cells: CHO-K1
T2 sequence (P30542 1-326): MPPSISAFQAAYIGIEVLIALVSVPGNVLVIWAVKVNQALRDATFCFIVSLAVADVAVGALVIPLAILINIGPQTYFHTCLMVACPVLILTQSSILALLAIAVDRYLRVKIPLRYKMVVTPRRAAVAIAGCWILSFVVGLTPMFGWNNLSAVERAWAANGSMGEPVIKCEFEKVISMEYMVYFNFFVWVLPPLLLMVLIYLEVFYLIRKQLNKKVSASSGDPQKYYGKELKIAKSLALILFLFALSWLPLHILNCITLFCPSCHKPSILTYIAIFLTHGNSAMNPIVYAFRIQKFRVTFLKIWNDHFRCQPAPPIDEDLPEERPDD
Put plainly: Adenosine A1 Receptor Functional Assay (A1GAL2). The class given is cell-based. The following applies: CHO-K1 cells overexpressing human A1 receptor, cAMP inducible beta-galactosidase reporter, 4 nM r-PIA/1 uM Forskolin agonist challenge; read-out: A1GAL2_v3 Ki. As to the method: Adenosine A1 Receptor Functional Assay (A1GAL2)
as §1, with “adenosine A1” for “adenosine A2a”, “a 4” for “a 15”, “nM r-PIA” for “nM NECA”, “(Sigma P4532)/1 uM Forskolin (Sigma F3917)” for “(Sigma E2387)”, “of r-PIA in 1 uM Forskolin,” for “of NECA,”, “Forskolin” for “Forskolin (Sigma F3917)”

In assay [3] the target is T3, human A2a adenosine receptor (Homo sapiens, UniProt P29274).
T3 construct: purchased PerkinElmer RB-HA2a; host or cells: HEK293 cell plasma membranes
The experiment in a line: Ligand Binding Assay for Adenosine A2a Receptor (A2A-B). The conditions noted are these: plasma membrane of HEK293 cells, radioligand [3H]CGS21680; read-out: A2A-B_v3 Ki. As to the method: Ligand Binding Assay for Adenosine A2a Receptor (A2A-B)
Ligand binding assay of adenosine A2a receptor was performed using plasma membrane of HEK293 cells containing human A2a adenosine receptor (PerkinElmer, RB-HA2a) and radioligand [^3H]CGS21680 (PerkinElmer, NET1021). Assay was set up in 96-well polypropylene plate in total volume of 200 μL by sequentially adding 20 μL 1:20 diluted membrane, 130 μL assay buffer (50 mM Tris.HCl, pH7.4 10 mM MgCl2, 1 mM EDTA) containing [^3H] CGS21680, 50 μL diluted compound (4×) or vehicle control in assay buffer. Nonspecific binding was determined by […] NECA. Reaction was carried out at room temperature for 2 hours before filtering through 96-well GF/C filter plate pre-soaked in 50 mM Tris.HCl, pH7.4 containing 0.3% polyethylenimine. Plates were then washed 5 times with cold 50 mM Tris.HCl, pH7.4, dried and sealed at the bottom. Microscintillation fluid 30 μL was added to each well and the top sealed. Plates were counted on Packard Topcount for [^3H]. Data was analyzed in Microsoft Excel and GraphPad Prism programs. (Varani, K.; Gessi, S.; Dalpiaz, A.; Borea, P. A. British Journal of Pharmacology, 1996, 117, 1693)

T1 sequence (P29274 whole entry): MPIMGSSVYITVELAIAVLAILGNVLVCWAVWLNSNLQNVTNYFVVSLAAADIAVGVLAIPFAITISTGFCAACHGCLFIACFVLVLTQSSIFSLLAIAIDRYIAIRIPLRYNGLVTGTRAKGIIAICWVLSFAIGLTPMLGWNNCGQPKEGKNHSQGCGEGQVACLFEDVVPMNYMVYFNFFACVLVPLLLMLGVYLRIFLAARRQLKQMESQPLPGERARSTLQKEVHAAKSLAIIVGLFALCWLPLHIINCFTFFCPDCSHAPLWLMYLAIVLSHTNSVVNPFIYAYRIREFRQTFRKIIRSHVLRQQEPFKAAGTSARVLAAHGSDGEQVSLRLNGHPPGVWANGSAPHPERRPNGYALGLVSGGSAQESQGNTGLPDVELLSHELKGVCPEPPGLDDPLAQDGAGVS
T3 sequence (P29274 whole entry): as above

On to `C[C@@H]1CCC[C@H](C)N1C[C@@H](O)c1cc2c(N)nc(-c3cccc(C#N)c3)nc2s1` [Example 7, 3-{4-Amino-6-[2-(2,6-dimethyl-piperidin-1-yl)-1-hydroxy-ethyl]-thieno[2,3-d]pyrimidin-2-yl}-benzonitrile], for which the figures for the Ki in assay [1] and in assay [2] were 0.195 µM and 0.855 µM, respectively.
For `N#Cc1cccc(-c2nc(N)c3cc(CCN4CCOCC4)sc3n2)c1` [Example 5, 3-[4-Amino-6-(2-morpholin-4-yl-ethyl)-thieno[2,3-d]pyrimidin-2-yl]-benzonitrile], in that order: 0.0401 µM and 0.594 µM.
For `CC(C)(C)c1ccc(-c2nc(N)c3cc(CCN4CCOCC4)sc3n2)s1` [Example 2, 2-(5-tert-Butyl-thiophen-2-yl)-6-(2-morpholin-4-yl-ethyl)-thieno[2,3-d]pyrimidin-4-ylamine], in that order: greater than 1.49 µM and greater than 1.31 µM.
For `N#Cc1cccc(-c2nc(N)c3cc([C@H](O)CN4CCOCC4)sc3n2)c1` [Example 6, 3-[4-Amino-6-(1-hydroxy-2-morpholin-4-yl-ethyl)-thieno[2,3-d]pyrimidin-2-yl]-benzonitrile], in that order: 0.0298 µM and 0.317 µM.
On to `Cc1csc(-c2nc(N)c3cc(CCN4CCOCC4)sc3n2)n1` [Example 4, 2-(4-Methyl-thiazol-2-yl)-6-(2-morpholin-4-yl-ethyl)-thieno[2,3-d]pyrimidin-4-ylamine], for which the Ki came to 0.19 µM in assay [1] and 2.37 µM in assay [2].
`Cc1ccc(-c2nc(N)c3cc(CC4CCCCC4)sc3n2)o1` [Example 1, 6-Cyclohexylmethyl-2-(5-methyl-furan-2-yl)-thieno[2,3-d]pyrimidin-4-ylamine]: the inhibition constant (Ki) in assay [1] was 0.0773 µM; in assay [3] it was 0.0342 µM; in assay [2] it was 3.77 µM.
Consider `Nc1nc(-c2ncco2)nc2sc(CCN3CCOCC3)cc12` [Example 3, 6-(2-Morpholin-4-yl-ethyl)-2-oxazol-2-yl-thieno[2,3-d]pyrimidin-4-ylamine], for which the Ki in assay [1] was found to be 0.238 µM; in assay [2] it was 18.7 µM.
